Read-outs that look alike come from different tables or passages of the source. Marks after values point to notes of the source that are not given here.
Columns and labels:
Septoria tritici = assay: Test D: wheat leaf blotch, preventive spray on wheat seedlings, visual disease rating; assay type: in vivo; settings: 100 = 100 % disease control, 0 = no disease control relative to controls
Description: A dash (−) indicates no test results.

Phytophthora infestans = assay type: in vivo; settings: 100 = 100 % disease control, 0 = no disease control relative to controls
[1] = tested on: Puccinia recondita f. sp. tritici; assay: Test B: wheat leaf rust, preventive spray on wheat seedlings, visual disease rating; settings: 100 = 100 % disease control, 0 = no disease control relative to controls
Botrytis cinerea = assay: Test E: tomato Botrytis, preventive spray on tomato seedlings, visual disease rating; settings: 100 = 100 % disease control, 0 = no disease control relative to controls
Description: General protocol for preparing test suspensions for Tests A-I: The test compounds were first dissolved in acetone in an amount equal to 3% of the final volume and then suspended at the desired concentration (in ppm) in acetone and purified water (50/50 mix) containing 250 ppm of the surfactant Trem® 014 (polyhydric alcohol esters). The resulting test suspensions were then used in Tests A-I. Spraying a 200 ppm test suspension to the point of run-off on the test plants was the equivalent of a rate of 500 g/ha.
The test suspension was sprayed to the point of run-off on tomato seedlings. The following day the seedlings were inoculated with a spore suspension of Botrytis cinerea (the causal agent of tomato Botrytis) and incubated in saturated atmosphere at 20° C. for 48 h, and then moved to a growth chamber at 24° C. for 3 additional days, after which time visual disease ratings were made.
(§1) All results are for 200 ppm except where followed by “*” which indicates 40 ppm.

Septoria nodorum = assay: Test C: wheat glume blotch, preventive spray on wheat seedlings, visual disease rating; settings: 100 = 100 % disease control, 0 = no disease control relative to controls
[2] = tested on: Erysiphe graminis f. sp. tritici; assay: Test A: wheat powdery mildew, preventive spray on wheat seedlings, visual disease rating; settings: 100 = 100 % disease control, 0 = no disease control relative to controls
Alternaria solani = assay: Test F: tomato early blight, preventive spray on tomato seedlings, visual disease rating; settings: 100 = 100 % disease control, 0 = no disease control relative to controls
Plasmopara viticola = assay: Test I: grape downy mildew, spray on grape seedlings after inoculation, visual disease rating; settings: 100 = 100 % disease control, 0 = no disease control relative to controls
Description: General protocol for preparing test suspensions for Tests A-I: The test compounds were first dissolved in acetone in an amount equal to 3% of the final volume and then suspended at the desired concentration (in ppm) in acetone and purified water (50/50 mix) containing 250 ppm of the surfactant Trem® 014 (polyhydric alcohol esters). The resulting test suspensions were then used in Tests A-I. Spraying a 200 ppm test suspension to the point of run-off on the test plants was the equivalent of a rate of 500 g/ha. (An asterisk “*” next to the rating value indicates a 40 ppm test suspension.)
Grape seedlings were inoculated with a spore suspension of Plasmopara viticola (the causal agent of grape downy mildew) and incubated in a saturated atmosphere at 20° C. for 24 h. After a short drying period, the test suspension was sprayed to the point of run-off on the grape seedlings and then moved to a growth chamber at 20° C. for 6 days, after which time the test units were placed back into a saturated atmosphere at 20° C. for 24 h. Upon removal, visual disease ratings were made.
as §1

Rhizoctonia oryzae = assay: Test G: turf brown patch, preventive spray on creeping bent grass seedlings, visual disease rating; settings: 100 = 100 % disease control, 0 = no disease control relative to controls
Description: The test suspension was sprayed to the point of run-off on creeping bent grass seedlings. The following day the seedlings were inoculated with a spore suspension of Rhizoctonia oryzae (the causal agent of turf brown patch) and incubated in a saturated atmosphere at 27° C. for 48 h, and then moved to a growth chamber at 27° C. for 3 days, after which time visual disease ratings were made.
A dash (−) indicates no test results. All results are for 200 ppm except where followed by “*” which indicates 40 ppm.

| Compound | Test D disease control rating (Septoria tritici; 200 ppm) [%] | Test H disease control rating (Phytophthora infestans; 200 ppm) [%] | Test B disease control rating ([1]; 200 ppm) [%] | Test E disease control rating (Botrytis cinerea; 200 ppm) [%] | Test C disease control rating (Septoria nodorum; 200 ppm) [%] | Test A disease control rating ([2]; 200 ppm) [%] | Test F disease control rating (Alternaria solani; 200 ppm) [%] | Test I disease control rating (Plasmopara viticola; 200 ppm) [%] | Test G disease control rating (Rhizoctonia oryzae; 200 ppm) [%] | Test D disease control rating (Septoria tritici; 40 ppm (marked *)) | Test H disease control rating (Phytophthora infestans; 40 ppm (marked *)) | Test B disease control rating ([1]; 40 ppm (marked *)) | Test E disease control rating (Botrytis cinerea; 40 ppm (marked *)) | Test C disease control rating (Septoria nodorum; 40 ppm (marked *)) | Test A disease control rating ([2]; 40 ppm (marked *)) | Test F disease control rating (Alternaria solani; 40 ppm (marked *)) | Test I disease control rating (Plasmopara viticola; 40 ppm (marked *)) | Test G disease control rating (Rhizoctonia oryzae; 40 ppm (marked *)) | melting point [°C] |
| --- | --- | --- | --- | --- | --- | --- | --- | --- | --- | --- | --- | --- | --- | --- | --- | --- | --- | --- | --- |
| CN1OC(c2cccnc2)(C(F)(F)F)CC1c1ccc(-c2ccccc2)cc1 (racemic) [Compound 23] | 98 | 0 | 0 | 0 | 97 | 99 | 4 | 0 | 0 | – | – | – | – | – | – | – | – | – | – |
| CN1O[C@@](C)(c2cnccn2)C[C@@H]1c1ccc(-c2ccccc2)cc1 (relative stereo) [Compound 22] | – | – | – | – | – | – | – | – | – | 97* % | 0* % | 0* % | 0* % | 0* % | 86* % | 0* % | 0* % | 0* % | – |
| CN1O[C@](c2cccnc2)(C(F)(F)F)C[C@@H]1c1ccc(I)cc1 (relative stereo) [Compound 28, rel-3-[(3R,5R)-3-(4-iodophenyl)-2-methyl-5-(trifluoromethyl)-5-isoxazolidinyl]pyridine] | – | – | – | – | – | – | – | – | – | 88* % | 0* % | 0* % | 0* % | 33* % | 99* % | 0* % | 0* % | 0* % | 108 to 110 |
| CN1O[C@](C)(c2cnccn2)C[C@@H]1c1ccc(-c2ccccc2)cc1 (relative stereo) [Compound 21, rel-2-[(3R,5S)-3-[1,1′-biphenyl]-4-yl-2,5-dimethyl-5-isoxazolidinyl]pyrazine] | – | – | – | – | – | – | – | – | – | 95* % | 0* % | 0* % | 0* % | 0* % | 97* % | 62* % | 0* % | 0* % | – |
| CN1O[C@@](c2cccnc2)(C(F)(F)F)C[C@@H]1c1ccc(I)cc1 (relative stereo) [Compound 27, rel-3-[(3R,5S)-3-(4-iodophenyl)-2-methyl-5-(trifluoromethyl)-5-isoxazolidinyl]pyridine] | – | – | – | – | – | – | – | – | – | 95* % | 0* % | 0* % | 0* % | 100* % | 100* % | 100* % | 0* % | 0* % | 80 to 83 |
| CN1OC(C)(c2cccnc2)CC1c1ccc(-n2cc(Br)cn2)cc1 (centres unmarked) [Compound 38] | – | – | – | – | – | – | – | – | – | 77* % | 0* % | 0* % | 0* % | 0* % | 0* % | 42* % | 0* % | 0* % | – |
| CN1OC(C)(c2cccnc2)CC1c1ccc(-c2ccc(OC(F)(F)F)cc2)cc1 (racemic) [Compound 18] | – | – | – | – | – | – | – | – | – | 58* % | 0* % | 0* % | 0* % | 0* % | 0* % | 7* % | 0* % | 0* % | – |
| Cc1ccc(-c2ccc(C3CC(c4cccnc4)(C(F)(F)F)ON3C)cc2)cc1 (racemic) [Compound 26] | – | – | – | – | – | – | – | – | – | 75* % | 0* % | 0* % | 0* % | 0* % | 96* % | 0* % | 0* % | 0* % | – |
| Cc1ccc(-c2ccc(C3CC(c4cccnc4)(C(F)(F)F)ON3C)cc2)cc1 (racemic) [Compound 25] | – | – | – | – | – | – | – | – | – | 86* % | 0* % | 0* % | 71* % | 0* % | 100* % | 0* % | 0* % | 0* % | – |
| Cc1cccc(-c2ccc(C3CC(c4cccnc4)(C(F)(F)F)ON3C)cc2)c1C (racemic) [Compound 32] | 85 | 0 | 0 | 0 | 0 | 97 | 0 | 9 | 0 | – | – | – | – | – | – | – | – | – | – |
| CN1O[C@](C)(c2cccnc2)C[C@@H]1c1ccc(-n2cc(Br)cn2)cc1 (relative stereo) [Compound 37, rel-3-[(3R,5S)-3-[4-(4-bromo-1H-pyrazol-1-yl)phenyl]-2,5-dimethyl-5-isoxazolidinyl]pyridine] | – | – | – | 94 | – | – | – | – | – | 99* % | 0* % | 74* % | – | 99* % | 95* % | 93* % | 0* % | 0* % | – |
| CN1OC(C)(c2cccnc2)CC1c1ccc(Oc2ccc(F)cc2)cc1 (racemic) [Compound 20] | 92 | 0 | 92 | 0 | 78 | 91 | 0 | 0 | 0 | – | – | – | – | – | – | – | – | – | – |
| CN1OC(c2cccnc2)(C(F)(F)F)CC1c1ccc(-c2ccccc2)cc1 (racemic) [Compound 24] | 100 | 0 | 45 | 0 | 0 | 99 | 0 | 0 | 0 | – | – | – | – | – | – | – | – | – | – |
| CN1O[C@@](C)(c2cccnc2)C[C@@H]1c1ccc(-n2ccc(C(F)(F)F)n2)cc1 (relative stereo) [Compound 36, rel-3-[(3R,5R)-2,5-dimethyl-3-[4-[3-(trifluoromethyl)-1H-pyrazol-1-yl]phenyl]-5-isoxazolidinyl]pyridine] | – | – | – | – | – | – | – | – | – | 73* % | 0* % | 0* % | 22* % | 0* % | 79* % | 23* % | 0* % | 7* % | – |
| CN1OC(c2cccnc2)(C(F)(F)F)CC1c1ccc(Br)cc1 (racemic) [Compound 30] | 83 | 0 | 89 | 0 | 92 | 100 | 0 | 58 | 0 | – | – | – | – | – | – | – | – | – | – |
| CN1OC(c2cccnc2)(C(F)(F)F)CC1c1ccc(Br)cc1 (racemic) [Compound 29] | – | – | – | – | – | – | – | – | – | 76* % | 0* % | 0* % | 0* % | 67* % | 98* % | 83* % | 0* % | 0* % | – |
| CN1OC(C)(c2cccnc2)CC1c1ccc(Oc2ccc(F)cc2)cc1 (racemic) [Compound 19] | 98 | 0 | 91 | 98 | 99 | 98 | 7 | 0 | 0 | – | – | – | – | – | – | – | – | – | – |
| Cc1cccc(-c2ccc(C3CC(c4cccnc4)(C(F)(F)F)ON3C)cc2)c1C (racemic) [Compound 31] | – | – | 0 | – | – | – | – | 0 | – | 50* % | 0* % | – | 0* % | 0* % | 98* % | 0* % | – | 0* % | – |
